ChEMBL document CHEMBL1201862, “PubChem BioAssay data set” (2004)
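Interpolation was linear, between the two tested concentrations surrounding the appropriate level; five concentrations were tested over 48 hours in 96-well plates. GI50 = concentration required for 50% inhibition of growth.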 Calls of active or inactive are those of the source. Rule as the data show it: active = GI50 up to about 1.1 µM and inactive = higher.

How the values were obtained:
Assay in all cases: DTP human tumour cell line panel, 48 h
[1] = system: 786-0
[2] = system: A549
[3] = system: ACHN
[4] = system: CAKI-1
[5] = system: COLO 205
[6] = system: EKVX
[7] = system: HCC 2998
[8] = system: KM12
[9] = system: MDA-N
[10] = system: NCI-H460
[11] = system: NCI-H522
[12] = system: NCI/ADR-RES
[13] = system: PC-3
[14] = system: RPMI-8226
[15] = system: RXF 393
[16] = system: SF-268
[17] = system: SK-MEL-5
[18] = system: SK-OV-3
[19] = system: T47D
[20] = system: UO-31

Measured: GI50

COc1ccc2c(c1)/c(=C/C#N)c1c3ccccc3[n+](C)n21
inactive: [1] 3.95 µM | [2] 3.39 µM | [3] 9.38 µM | [4] 16.1 µM | [5] 2.34 µM | [6] 2.69 µM | [7] 1.44 µM | [8] 6.04 µM | [9] 5.43 µM | [10] 7.23 µM | [11] 4.33 µM | [12] 18.4 µM | [13] 2.8 µM | [14] 1.96 µM | [15] 10.9 µM | [16] 8.71 µM | [17] 6.62 µM | [18] 15.5 µM | [19] 2.51 µM | [20] 16.7 µM

S=c1c2cn[nH]c2nc2scc(-c3ccc(Cl)cc3)n12
inactive: [1] 14.1 µM | [2] 13 µM | [3] 12.9 µM | [4] 9.59 µM | [5] 23.5 µM | [6] 17.3 µM | [7] 15.4 µM | [8] 11.1 µM | [9] 4.36 µM | [10] 20.6 µM | [11] 24.9 µM | [12] 13.8 µM | [13] 12.9 µM | [14] 23.6 µM | [15] 4.04 µM | [16] 16.6 µM | [17] 17.6 µM | [18] 18.1 µM | [19] > 10 µM | [20] 6.24 µM

COc1cccc2c1Cc1cc(-c3ccccc3)[n+](C)n1-2
inactive: [1] 7.24 µM | [2] 27.9 µM | [3] 19.2 µM | [4] 66.8 µM | [5] 1.38 µM | [6] 1.5 µM | [7] 10.2 µM | [8] 11.5 µM | [9] 11.9 µM | [10] 14.5 µM | [11] 4.93 µM | [12] 84.7 µM | [13] 11.4 µM | [14] 4.18 µM | [15] 19 µM | [16] 19.9 µM | [17] 8.89 µM | [18] 33.2 µM | [19] 3.4 µM | [20] 22.5 µM

COc1ccc(C2SC(C)C(=O)N2c2nc(-c3nc(-c4ccc(Cl)cc4)cs3)cs2)cc1 (stereo not given)
inactive: [1] > 100 µM | [2] > 100 µM | [3] > 100 µM | [4] > 100 µM | [5] > 100 µM | [6] > 100 µM | [7] > 100 µM | [8] > 100 µM | [9] > 100 µM | [10] > 100 µM | [11] > 100 µM | [12] > 100 µM | [13] 66.8 µM | [14] > 100 µM | [15] > 100 µM | [16] > 100 µM | [17] > 100 µM | [18] > 100 µM | [19] 46.1 µM | [20] > 100 µM

COC(=O)C(CNC(=O)/C=C/c1ccc(OC)c(OC)c1)NC(=O)/C=C/c1ccc(OC)c(OC)c1 (stereo not given)
inactive: [1] > 100 µM | [2] > 100 µM | [3] > 100 µM | [4] > 100 µM | [5] > 100 µM | [6] > 100 µM | [7] 50 µM | [8] > 100 µM | [9] > 100 µM | [10] 45.2 µM | [11] > 100 µM | [12] > 100 µM | [13] > 100 µM | [14] > 100 µM | [15] > 100 µM | [16] > 100 µM | [17] > 100 µM | [18] > 100 µM | [19] 75.7 µM | [20] > 100 µM

O=C(/C=C/c1ccc(O)c(O)c1)OCC(OC(=O)/C=C/c1ccc(O)c(O)c1)C(=O)O (stereo not given)
inactive: [1] > 100 µM | [2] > 100 µM | [3] > 100 µM | [4] > 100 µM | [5] > 100 µM | [6] > 100 µM | [7] > 100 µM | [8] > 100 µM | [9] > 100 µM | [10] 86.9 µM | [11] 84.7 µM | [12] > 100 µM | [13] > 100 µM | [14] > 100 µM | [15] > 100 µM | [16] > 100 µM | [17] > 100 µM | [18] > 100 µM | [19] > 100 µM | [20] 85.7 µM

COc1cc2c3cc1Oc1c(O)c(OC)cc4c1[C@H](Cc1ccc(cc1)Oc1cc(ccc1O)C[C@H]3N(C)CC2)N(C)CC4
inactive: [1] 6.52 µM | [2] 15.2 µM | [3] 19.4 µM | [4] 25.9 µM | [5] 13.8 µM | [6] 16.7 µM | [7] 7.05 µM | [8] 9.02 µM | [9] 10.7 µM | [10] 8.99 µM | [11] 11 µM | [12] 24.5 µM | [13] 8.51 µM | [14] 5.33 µM | [15] 3.63 µM | [16] 14.4 µM | [17] 7.33 µM | [18] 25.4 µM | [19] 17.9 µM | [20] 12.6 µM
